Measurements taken from US10670605B2, “Cysteine reactive probes and uses thereof” (The Scripps Research Institute, priority 2015, dated 2020).

What was measured:
Assay in all cases: Competitive isoTOP-ABPP in situ (fragment-treated cells)
Assay type in all cases: cell-based
[1] = biological target: cysteines in MDA-MB-231 and Ramos cells (Homo sapiens, UniProt Q06203)
[2] = biological target: cysteines in MDA-MB-231 and Ramos cells (Homo sapiens, UniProt Q15118)
[3] = biological target: T1, cysteines in MDA-MB-231 and Ramos cells (Homo sapiens, UniProt Q6ICB0); conditions: 200 μM, insitu, 231
T1 sequence (Q6ICB0 1-168): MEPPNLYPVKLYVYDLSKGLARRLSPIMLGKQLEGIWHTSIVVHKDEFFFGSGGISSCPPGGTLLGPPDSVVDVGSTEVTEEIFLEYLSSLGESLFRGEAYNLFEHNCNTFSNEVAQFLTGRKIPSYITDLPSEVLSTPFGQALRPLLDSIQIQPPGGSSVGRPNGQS

[4] = biological target: T2, cysteines in MDA-MB-231 and Ramos cells (Homo sapiens, UniProt Q9NRW3); conditions: for isoTOP-ABPP ratio Q9NRW3_C130: 200 μM, insitu, 231
T2 sequence (Q9NRW3 1-190): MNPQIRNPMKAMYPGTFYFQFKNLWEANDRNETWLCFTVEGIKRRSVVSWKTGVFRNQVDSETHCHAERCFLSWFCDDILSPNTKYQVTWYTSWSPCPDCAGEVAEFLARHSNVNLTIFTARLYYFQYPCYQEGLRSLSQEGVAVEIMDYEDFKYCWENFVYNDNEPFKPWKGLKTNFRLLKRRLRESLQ

[5] = biological target: cysteines in MDA-MB-231 and Ramos cells (Homo sapiens, UniProt P48643)
Chain of cysteines in MDA-MB-231 and Ramos cells (Homo sapiens, UniProt P48643) (P48643 whole entry): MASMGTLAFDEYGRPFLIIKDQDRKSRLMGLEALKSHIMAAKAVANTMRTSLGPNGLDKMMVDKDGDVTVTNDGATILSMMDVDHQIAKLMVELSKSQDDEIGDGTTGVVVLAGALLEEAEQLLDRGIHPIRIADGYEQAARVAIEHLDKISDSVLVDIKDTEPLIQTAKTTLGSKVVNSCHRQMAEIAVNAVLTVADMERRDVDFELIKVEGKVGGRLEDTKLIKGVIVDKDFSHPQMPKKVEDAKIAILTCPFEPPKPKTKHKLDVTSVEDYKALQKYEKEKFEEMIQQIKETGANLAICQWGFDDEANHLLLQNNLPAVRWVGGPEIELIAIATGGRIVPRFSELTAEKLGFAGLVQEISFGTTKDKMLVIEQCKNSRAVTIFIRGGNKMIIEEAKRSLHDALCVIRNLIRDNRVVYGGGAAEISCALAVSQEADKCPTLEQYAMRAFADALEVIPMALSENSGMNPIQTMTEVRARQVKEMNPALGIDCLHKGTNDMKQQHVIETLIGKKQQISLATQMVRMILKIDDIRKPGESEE

[6] = biological target: cysteines in MDA-MB-231 and Ramos cells (Homo sapiens, UniProt Q8NDH3)
Chain of cysteines in MDA-MB-231 and Ramos cells (Homo sapiens, UniProt Q8NDH3) (Q8NDH3 whole entry): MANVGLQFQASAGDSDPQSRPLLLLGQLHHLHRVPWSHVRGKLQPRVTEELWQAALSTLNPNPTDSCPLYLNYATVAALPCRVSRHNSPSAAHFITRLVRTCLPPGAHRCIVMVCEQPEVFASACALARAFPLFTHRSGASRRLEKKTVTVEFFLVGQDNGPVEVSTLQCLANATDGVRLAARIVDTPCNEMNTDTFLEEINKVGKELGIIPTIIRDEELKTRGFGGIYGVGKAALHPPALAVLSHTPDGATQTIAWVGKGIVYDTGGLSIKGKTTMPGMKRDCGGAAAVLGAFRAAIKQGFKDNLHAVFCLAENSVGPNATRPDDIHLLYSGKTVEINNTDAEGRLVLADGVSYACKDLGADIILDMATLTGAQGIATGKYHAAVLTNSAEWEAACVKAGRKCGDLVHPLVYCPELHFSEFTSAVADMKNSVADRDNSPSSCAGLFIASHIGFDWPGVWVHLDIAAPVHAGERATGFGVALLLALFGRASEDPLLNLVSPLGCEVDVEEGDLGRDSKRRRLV

[7] = biological target: cysteines in MDA-MB-231 and Ramos cells (Homo sapiens, UniProt P35658); conditions: for isoTOP-ABPP ratio P35658_C728: 200 μM, insitu, 231
Chain of cysteines in MDA-MB-231 and Ramos cells (Homo sapiens, UniProt P35658) (P35658 whole entry): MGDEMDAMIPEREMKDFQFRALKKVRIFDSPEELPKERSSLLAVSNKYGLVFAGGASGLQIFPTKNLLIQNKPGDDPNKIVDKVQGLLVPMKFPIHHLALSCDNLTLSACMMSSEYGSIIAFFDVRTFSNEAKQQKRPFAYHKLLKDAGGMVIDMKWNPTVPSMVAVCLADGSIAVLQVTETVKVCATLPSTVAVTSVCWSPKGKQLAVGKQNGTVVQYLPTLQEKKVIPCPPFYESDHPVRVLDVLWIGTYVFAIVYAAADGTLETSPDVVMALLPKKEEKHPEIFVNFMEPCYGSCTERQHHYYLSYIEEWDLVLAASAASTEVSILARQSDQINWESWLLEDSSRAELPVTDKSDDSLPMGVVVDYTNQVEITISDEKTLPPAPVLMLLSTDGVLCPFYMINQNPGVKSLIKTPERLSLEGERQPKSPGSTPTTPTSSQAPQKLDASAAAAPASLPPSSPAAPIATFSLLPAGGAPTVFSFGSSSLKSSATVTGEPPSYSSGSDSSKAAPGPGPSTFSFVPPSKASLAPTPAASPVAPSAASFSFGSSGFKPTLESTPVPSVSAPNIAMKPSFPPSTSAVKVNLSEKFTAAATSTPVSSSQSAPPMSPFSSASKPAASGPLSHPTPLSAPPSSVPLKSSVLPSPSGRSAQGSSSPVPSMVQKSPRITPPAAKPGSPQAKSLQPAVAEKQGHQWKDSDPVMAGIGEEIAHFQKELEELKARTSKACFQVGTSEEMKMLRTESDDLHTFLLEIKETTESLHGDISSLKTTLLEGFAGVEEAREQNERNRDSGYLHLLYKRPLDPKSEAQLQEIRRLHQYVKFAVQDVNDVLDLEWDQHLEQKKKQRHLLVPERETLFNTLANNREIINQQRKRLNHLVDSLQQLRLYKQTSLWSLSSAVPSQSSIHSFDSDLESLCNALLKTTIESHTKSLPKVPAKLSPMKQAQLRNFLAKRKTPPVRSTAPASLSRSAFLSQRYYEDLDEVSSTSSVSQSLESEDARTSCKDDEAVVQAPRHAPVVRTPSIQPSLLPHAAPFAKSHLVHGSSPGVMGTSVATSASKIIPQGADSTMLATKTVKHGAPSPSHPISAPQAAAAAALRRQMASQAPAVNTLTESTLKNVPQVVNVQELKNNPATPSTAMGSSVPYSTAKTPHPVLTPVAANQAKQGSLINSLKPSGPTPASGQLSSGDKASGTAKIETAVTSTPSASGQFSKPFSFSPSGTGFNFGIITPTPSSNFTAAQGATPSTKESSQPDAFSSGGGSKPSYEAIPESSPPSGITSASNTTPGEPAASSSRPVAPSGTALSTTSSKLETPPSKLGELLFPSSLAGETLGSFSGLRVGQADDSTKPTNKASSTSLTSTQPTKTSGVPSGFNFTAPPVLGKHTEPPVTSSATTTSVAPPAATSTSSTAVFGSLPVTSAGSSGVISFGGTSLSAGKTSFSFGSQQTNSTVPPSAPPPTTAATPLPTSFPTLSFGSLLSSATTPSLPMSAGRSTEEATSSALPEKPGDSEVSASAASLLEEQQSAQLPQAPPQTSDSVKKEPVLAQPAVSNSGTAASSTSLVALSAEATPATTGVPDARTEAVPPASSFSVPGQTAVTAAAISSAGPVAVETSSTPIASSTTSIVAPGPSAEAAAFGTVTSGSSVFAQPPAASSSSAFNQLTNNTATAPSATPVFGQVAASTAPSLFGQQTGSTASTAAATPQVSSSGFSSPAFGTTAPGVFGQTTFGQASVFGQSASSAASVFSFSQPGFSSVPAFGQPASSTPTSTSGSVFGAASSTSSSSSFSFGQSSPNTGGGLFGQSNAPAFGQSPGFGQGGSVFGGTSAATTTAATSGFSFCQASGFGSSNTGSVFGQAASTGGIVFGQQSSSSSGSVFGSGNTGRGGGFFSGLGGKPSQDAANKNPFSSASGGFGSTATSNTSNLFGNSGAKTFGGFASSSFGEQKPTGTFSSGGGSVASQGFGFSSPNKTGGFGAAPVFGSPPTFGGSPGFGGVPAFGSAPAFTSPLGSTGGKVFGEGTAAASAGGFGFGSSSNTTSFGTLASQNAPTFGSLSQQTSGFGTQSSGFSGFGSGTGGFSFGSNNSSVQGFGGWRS

[8] = biological target: T3, cysteines in MDA-MB-231 and Ramos cells (Homo sapiens, UniProt Q96RS6); conditions: for isoTOP-ABPP ratio Q96RS6_C376: 200 μM, insitu, 231
T3 sequence (Q96RS6 1-583): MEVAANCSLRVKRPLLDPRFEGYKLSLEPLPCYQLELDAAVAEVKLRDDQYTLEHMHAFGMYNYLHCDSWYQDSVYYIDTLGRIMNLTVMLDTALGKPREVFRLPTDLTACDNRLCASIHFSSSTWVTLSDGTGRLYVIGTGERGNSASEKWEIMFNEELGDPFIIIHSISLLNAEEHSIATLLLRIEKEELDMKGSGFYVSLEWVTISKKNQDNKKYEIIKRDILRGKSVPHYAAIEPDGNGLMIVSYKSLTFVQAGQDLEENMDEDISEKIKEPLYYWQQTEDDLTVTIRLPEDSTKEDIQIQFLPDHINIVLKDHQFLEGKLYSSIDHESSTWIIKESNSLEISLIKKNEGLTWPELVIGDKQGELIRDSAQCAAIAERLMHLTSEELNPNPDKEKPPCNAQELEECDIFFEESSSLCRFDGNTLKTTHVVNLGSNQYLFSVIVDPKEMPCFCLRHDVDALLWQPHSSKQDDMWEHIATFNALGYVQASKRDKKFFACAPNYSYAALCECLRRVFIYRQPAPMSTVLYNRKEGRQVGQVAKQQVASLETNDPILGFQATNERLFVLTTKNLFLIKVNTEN

[9] = biological target: T4, cysteines in MDA-MB-231 and Ramos cells (Homo sapiens, UniProt Q9Y570)
T4 sequence (Q9Y570 1-386): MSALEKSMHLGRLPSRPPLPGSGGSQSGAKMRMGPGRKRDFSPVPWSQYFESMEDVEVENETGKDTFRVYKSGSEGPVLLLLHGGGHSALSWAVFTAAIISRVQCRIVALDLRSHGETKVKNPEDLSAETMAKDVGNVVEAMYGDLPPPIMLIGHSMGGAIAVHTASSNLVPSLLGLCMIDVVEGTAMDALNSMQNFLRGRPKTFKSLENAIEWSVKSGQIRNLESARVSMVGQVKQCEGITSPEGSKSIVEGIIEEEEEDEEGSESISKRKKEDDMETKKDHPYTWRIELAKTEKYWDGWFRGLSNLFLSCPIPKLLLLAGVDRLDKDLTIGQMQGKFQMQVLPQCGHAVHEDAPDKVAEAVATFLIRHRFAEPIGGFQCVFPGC

[10] = biological target: T5, cysteines in MDA-MB-231 and Ramos cells (Homo sapiens, UniProt O14929); conditions: 200 μM, insitu, 231
T5 sequence (O14929 1-419): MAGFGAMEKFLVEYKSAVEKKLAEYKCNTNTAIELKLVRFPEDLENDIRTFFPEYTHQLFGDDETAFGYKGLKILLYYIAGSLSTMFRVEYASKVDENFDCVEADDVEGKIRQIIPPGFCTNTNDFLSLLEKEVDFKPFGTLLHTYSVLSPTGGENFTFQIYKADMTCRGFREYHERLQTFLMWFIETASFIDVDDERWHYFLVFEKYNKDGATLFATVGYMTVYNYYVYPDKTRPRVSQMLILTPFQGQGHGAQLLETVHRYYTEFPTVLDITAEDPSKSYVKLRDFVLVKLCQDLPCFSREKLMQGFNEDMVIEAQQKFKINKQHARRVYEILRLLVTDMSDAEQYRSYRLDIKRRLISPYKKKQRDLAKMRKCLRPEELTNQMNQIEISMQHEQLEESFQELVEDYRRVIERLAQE

[11] = biological target: T6, cysteines in MDA-MB-231 and Ramos cells (Homo sapiens, UniProt Q5TFE4); conditions: 200 μM, insitu
T6 sequence (Q5TFE4 1-455): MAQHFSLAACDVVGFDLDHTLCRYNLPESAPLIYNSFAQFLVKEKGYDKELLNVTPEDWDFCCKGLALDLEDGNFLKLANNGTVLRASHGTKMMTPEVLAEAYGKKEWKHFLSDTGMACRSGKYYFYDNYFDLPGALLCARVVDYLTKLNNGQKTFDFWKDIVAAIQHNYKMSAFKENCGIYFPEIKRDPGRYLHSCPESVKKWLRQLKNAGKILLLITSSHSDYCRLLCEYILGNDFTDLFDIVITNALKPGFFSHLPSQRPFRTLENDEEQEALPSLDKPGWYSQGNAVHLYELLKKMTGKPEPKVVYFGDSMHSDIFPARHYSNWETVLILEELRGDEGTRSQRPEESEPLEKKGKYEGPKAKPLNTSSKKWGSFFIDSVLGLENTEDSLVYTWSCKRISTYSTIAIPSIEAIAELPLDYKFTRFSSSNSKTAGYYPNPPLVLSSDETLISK

Chain of cysteines in MDA-MB-231 and Ramos cells (Homo sapiens, UniProt Q15118) (Q15118 29-436): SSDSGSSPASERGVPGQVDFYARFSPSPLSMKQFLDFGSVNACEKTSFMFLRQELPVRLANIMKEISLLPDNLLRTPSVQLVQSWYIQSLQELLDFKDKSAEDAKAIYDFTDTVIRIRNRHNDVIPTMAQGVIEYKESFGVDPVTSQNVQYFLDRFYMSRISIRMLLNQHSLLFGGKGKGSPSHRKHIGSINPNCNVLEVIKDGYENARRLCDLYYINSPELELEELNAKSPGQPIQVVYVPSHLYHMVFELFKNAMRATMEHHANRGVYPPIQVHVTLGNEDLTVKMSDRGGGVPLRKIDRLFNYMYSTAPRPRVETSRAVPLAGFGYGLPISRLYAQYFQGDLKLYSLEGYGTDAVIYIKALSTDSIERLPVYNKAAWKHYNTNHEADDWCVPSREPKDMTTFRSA
Chain of cysteines in MDA-MB-231 and Ramos cells (Homo sapiens, UniProt Q06203) (Q06203 12-517): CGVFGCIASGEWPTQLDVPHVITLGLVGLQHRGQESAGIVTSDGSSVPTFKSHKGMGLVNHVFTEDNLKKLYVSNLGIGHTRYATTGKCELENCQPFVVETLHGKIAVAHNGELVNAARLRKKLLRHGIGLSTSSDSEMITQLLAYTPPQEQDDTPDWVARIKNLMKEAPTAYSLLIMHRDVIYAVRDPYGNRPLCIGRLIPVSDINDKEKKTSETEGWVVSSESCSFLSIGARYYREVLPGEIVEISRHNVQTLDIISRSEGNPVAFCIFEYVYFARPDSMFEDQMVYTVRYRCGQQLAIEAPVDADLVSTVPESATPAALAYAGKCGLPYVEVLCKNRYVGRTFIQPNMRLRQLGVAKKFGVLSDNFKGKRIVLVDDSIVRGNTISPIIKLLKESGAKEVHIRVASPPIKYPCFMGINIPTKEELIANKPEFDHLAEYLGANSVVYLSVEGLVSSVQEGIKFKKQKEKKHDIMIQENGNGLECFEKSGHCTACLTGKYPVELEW

## CC(C)CCOCCNC(=O)CCl [compound 27]
[1]; 200 μM, insitu, 231
  isoTOP-ABPP ratio Q06203_C100: 0.8
[2]; 200 μM, insitu, 231
  isoTOP-ABPP ratio Q15118_C71: 1.5
[3]
  isoTOP-ABPP ratio Q6ICB0_C108: 1.9
[4]
  isoTOP-ABPP ratio Q9NRW3_C130: 1.3

## COc1cc2c(cc1OC)CN(C(=O)CCl)CC2 [compound 8]
[5]; 200 μM, insitu, 231
  isoTOP-ABPP reactivity P48643_C253 CCT5: 0.8
[2]; 200 μM, insitu, 231
  isoTOP-ABPP reactivity Q15118_C71 PDK1: 20.0
[3]
  isoTOP-ABPP reactivity Q6ICB0_C108 DESII: 20.0
[6]; 200 μM, insitu, 231
  isoTOP-ABPP reactivity Q8NDH3_C81 NPEPL1: 20.0

## COc1ccc(C2CC(c3cccs3)=NN2C(=O)CCl)cc1 (stereo not drawn) [compound 4]
[7]; 100 μM in situ 231
  isoTOP-ABPP reactivity P35658_C728 NUP214: 1.7
[5]; 100 μM in situ 231
  isoTOP-ABPP reactivity P48643_C253 CCT5: 0.8
[1]; 100 μM in situ 231
  isoTOP-ABPP reactivity Q06203_C100 PPAT: 1.7
[2]; 100 μM in situ 231
  isoTOP-ABPP reactivity Q15118_C71 PDK1: 20.0
[6]; 100 μM in situ 231
  isoTOP-ABPP reactivity Q8NDH3_C81 NPEPL1: 20.0
[8]; 100 μM in situ 231
  isoTOP-ABPP reactivity Q96RS6_C376 NUDCD1: 1.6
[4]; 100 μM in situ 231
  isoTOP-ABPP reactivity Q9NRW3_C130 APOBEC3C: 20.0
[9]; 100 μM in situ 231
  isoTOP-ABPP reactivity Q9Y570_C381 PPME1: 1.1

## O=C(CCl)Nc1cccc2ncccc12 [compound 51]
[5]; 200 μM, insitu, 231
  isoTOP-ABPP ratio P48643_C253: 0.8
[3]
  isoTOP-ABPP ratio Q6ICB0_C108: 1.1

## COc1ccccc1OCCNC(=O)CCl [compound 28]
[5]; 200 μM, insitu, 231
  isoTOP-ABPP ratio P48643_C253: 0.8

## O=C(CCl)N1CCN(S(=O)(=O)c2ccccc2F)CC1 [compound 10]
[10]
  isoTOP-ABPP ratio O14929_C101: 20.0
[7]
  isoTOP-ABPP ratio P35658_C728: 20.0
[5]; 200 μM, insitu, ramos
  isoTOP-ABPP ratio P48643_C253: 0.9
[1]; 200 μM, insitu, ramos
  isoTOP-ABPP ratio, cysteine Q06203_C100: 20.0
[2]; 200 μM, insitu, 231
  isoTOP-ABPP ratio Q15118_C71: 18.0
[2]; 200 μM, insitu, ramos
  isoTOP-ABPP ratio Q15118_C71: 2.7
[11]; ramos
  isoTOP-ABPP ratio, cysteine Q5TFE4_C119: 20.0
[6]; 200 μM, insitu, 231
  isoTOP-ABPP ratio, cysteine Q8NDH3_C81: 5.7
[8]
  isoTOP-ABPP ratio Q96RS6_C376: 5.7
[9]; 200 μM, insitu, 231
  isoTOP-ABPP ratio, cysteine Q9Y570_C381: 4.7

## CC1CCc2ccccc2N1C(=O)CCl (stereo not drawn) [compound 45]
[10]
  isoTOP-ABPP ratio O14929_C101: 20.0
[7]
  isoTOP-ABPP ratio P35658_C728: 3.1
[5]; 200 μM, insitu, 231
  isoTOP-ABPP ratio P48643_C253: 1.2
[2]; 200 μM, insitu, 231
  isoTOP-ABPP ratio Q15118_C71: 20.0
[3]
  isoTOP-ABPP ratio Q6ICB0_C108: 3.1
[4]
  isoTOP-ABPP ratio Q9NRW3_C130: 20.0

## Cc1ccc(C=C(C#N)C(=O)NCCN2CCOCC2)cc1 [compound 41]
[10]
  isoTOP-ABPP ratio O14929_C101: 0.6
[7]
  isoTOP-ABPP ratio P35658_C728: 1.1
[5]; 200 μM, insitu, 231
  isoTOP-ABPP ratio P48643_C253: 0.8
[11]; 231
  isoTOP-ABPP ratio Q5TFE4_C119: 0.5
[8]
  isoTOP-ABPP ratio Q96RS6_C376: 0.7
[4]
  isoTOP-ABPP ratio Q9NRW3_C130: 0.9
[9]; 200 μM, insitu, 231
  isoTOP-ABPP ratio Q9Y570_C381: 0.2
